The values below are quoted from earlier work in patent US20220080020A1, “COMPOSITIONS AND METHODS FOR REDUCING THE TRAN[…] […] USING AN ORAL […] SYSTEM” (priority 2020, published 2022).

The test system of data set [1] is ACE2 receptor. The settings on record: prevents covid 19 attachment.
For data set [2] the following is noted: children, xylitol chewing gum or oral solution.
The conditions of data set [3]: aqueous solution.

`Cc1cc(O)c2c(c1)C(=O)c1cc(O)cc(O)c1C2=O` [Emodin]: the “competition with the ACE2 receptor” value in data set [1] is given as “compete with the ACE2 receptor”.
As for `OC[C@@H](O)[C@H](O)[C@@H](O)CO` [xylitol], in data set [2], the “reduction in the incidence of otitis” value was “between a thirty and forty-percent reduction”. In addition, in data set [3], the “solubility (saturated solution)” value was “up to 64.2 grams per 100 ml of solution”.
